In assay [1] the test system is Candida albicans. In words: Microscopic examination of treated Candida albicans cultures for hyphae (yeast-to-hypha switch). The assay is classed as cell-based. As for the experimental part: Cultures of Candida albicans were treated for 24 and 48 hrs either with the common antifungal substance fluconazol, GMAP 16-42 or Galanin.
Assay [2] deals with Candida albicans. As to the kind of experiment: Antifungal (growth inhibition) activity against C. albicans. Particulars: for inhibitory growth effect / antimicrobial activity against C. albicans: FIG. 3 (C), ** p<0.05. The assay is classed as cell-based. The text has this: The inventors analyzed the antimicrobial activity of peptide fragments corresponding to ppGAL against gram-negative E. coli gram-positive Staphylococcus aureus and Corynebacterium sp. and the yeast Candida albicans and Aspergillus fumigatus. Positive controls were the antimicrobial peptides Indolicidin, NPY 13-36 and Magainin I, as a negative control served the Adrenocorticotropic hormone (ACTH) 18-39 (Cutuli M, Cristiani S, Lipton J M and Catania A: Antimicrobial effects of alpha-MSH peptides. J Leukoc Biol 67:233-239, 2000; Selsted M E, Novotny M J, Morris W L, Tang Y Q, Smith W and Cullor J S: Indolicidin, a novel bactericidal tridecapeptide amide from neutrophils. J Biol Chem. 267:4292-4295., 1992; Shimizu M, Shigeri Y, Tatsu Y, Yoshikawa S and Yumoto N: Enhancement of antimicrobial activity of neuropeptide Y by N-terminal truncation. Antimicrob Agents Chemother 42:2745-2746, 1998; Zasloff M: Magainins, a class of antimicrobial peptides from Xenopus skin: isolation, characterization of two active forms, and partial cDNA sequence of a precursor. Proc Natl Acad Sci USA 84:5449-5453, 1987).
None of the peptide fragments tested of the ppGal gene did reveal antibacterial activity. […] The antifungal activity can be found already at a concentration of […] (4 μM).

Where [3] appears, read: interpretation of microscopy findings.

Where “and” joins values, the source holds several entries; their conditions need not be identical. Equal values may be shown once. Entries after “also recorded” stand apart in the source; their conditions may differ.

With `OC(Cn1cncn1)(Cn1cncn1)c1ccc(F)cc1F` [fluconazol, reference compound], the “microscopic examination of cultures: hyphae / yeast forms” value in the assay on Candida albicans [1] (treated for 24 and 48 hrs) is “hyphae were only visible in the untreated and galanin treated wells”; with Candida albicans [1] (treated for 48 hrs (FIG. 4)) it was “hyphae were only visible in the untreated and galanin treated wells”.
Consider “ELRPEDDMKPGSFDRSIPENNIMRTIIEFLSFLHLKEAGAL (listed as Homo sapiens) [GMAP 1-41]”, for which, in the assay on Candida albicans [2], the “inhibitory growth effect / antimicrobial activity against C. albicans” value was “active compound”.
On to “GMAP: galanin message associated peptide; in b114 refers to the GMAP fragment treated wells (ELRPEDDMKPGSFDRSIPENNIMRTIIEFLSFLHLKEAGAL; listed as Homo sapiens)”, for which, in the assay with Candida albicans [1] (setting [3]), the “effect on proliferation of Candida per se” value is given as “not to significantly affect the proliferation of Candida per se” and the “effect on switch to pathogenic hyphal forms” value is “inhibits the switch to pathogenic hyphal forms; also recorded: inhibits the pathogenic phenotypic switch of C. albicans”.
Regarding “SIPENNIMRTIIEFLSFLHLKEAGAL (listed as Homo sapiens) [GMAP 16-41]”, the “concentration at which antifungal activity can be found” value in the assay with Candida albicans [2] (C. albicans) is 12 pg/ml and 4 μM. In addition, the “inhibitory growth effect / antimicrobial activity against C. albicans” value in the assay on Candida albicans [2] is listed as “antimicrobial core sequence”.

The record behind these values is patent US20090317395A1, “Antimicrobial Peptide Derived from Galanin Message Associated Peptide (GMAP)” (priority 2006, published 2009).
